The values that follow come from PubChem BioAssay (NCI).

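Results reflect a 48-hour exposure of cells in 96-well plates to compound at five concentrations. At the TGI there is no net growth.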

Test systems include SNB-78 CNS; DLD-1 colon; XF 498 CNS; M19-MEL melanoma; DMS 273 small cell lung; HOP-18 NSCLC.
What all share (assay): NCI-60 cell line screen, 48 h

Take `CCCOc1ccc(/C(Cl)=C(\C=O)c2ccc(OC)c(OC)c2)cc1OCCC`: the TGI in the assay on SNB-78 CNS is above 100 µM; with DLD-1 colon, above 100 µM; in the assay on XF 498 CNS, 33.1 µM; in the assay on M19-MEL melanoma, 31.1 µM; with DMS 273 small cell lung, 40.1 µM; in the assay with HOP-18 NSCLC it was above 100 µM.
`CC(C)(O)[C@@H]1CCC(C)([C@H]2[C@@H](O)CC3(C)C4CC(OC5OC(CO)C(O)C(O)C5O)C5C(C)(C)[C@@H](OC6OCC(O)C(O)C6O)CC[C@@]56C[C@@]46CC[C@]23C)O1` (stereo partly drawn): the TGI in the assay on SNB-78 CNS, in the assay with DLD-1 colon, in the assay on XF 498 CNS, in the assay with M19-MEL melanoma, in the assay with DMS 273 small cell lung and in the assay with HOP-18 NSCLC was above 100 µM each time.
As for `O=c1[nH]c(=S)[nH]c2c1sc(=S)n2-c1ccccc1`, the TGI in the assay with SNB-78 CNS, with DLD-1 colon, in the assay with XF 498 CNS, in the assay with M19-MEL melanoma, with DMS 273 small cell lung and in the assay with HOP-18 NSCLC was above 100 µM throughout.
